Where two headings read alike, the source gives them in different places.
Assays:
HCoV-NL63 M^pro = conditions: read-out: IC50 HCoV-NL63, cited from earlier work
HCoV-HKU1 M^pro = conditions: read-out: IC50 HCoV-HKU1; cited from earlier work
HCoV-OC43 M^pro = conditions: read-out: IC50 HCoV-OC43, cited from earlier work
M^pro of four alpha-CoVs = conditions: read-out: IC50 values against all four alpha-CoVs
[1] = tested on: M^pro of ten high-risk CoVs

Structure (SMILES): Cc1cncc(-n2c(=O)[nH]/c(=N\c3cc4cn(C)nc4cc3Cl)n(Cc3cc(C#N)ccc3Sc3ccc(Cl)s3)c2=O)c1 [Compound 24, (E)-3-((6-((6-Chloro-2-methyl-2H-indazol-5-yl)imino)-3-(5-methylpyridin-3-yl)-2,4-dioxo-1,3,5-triazinan-1-yl)methyl)-4-((5-chlorothiophen-2-yl)thio)benzonitrile]
- IC50 (M^pro of four alpha-CoVs): < 300 nM

Structure (SMILES): Cn1cnc(Cn2c(=O)[nH]/c(=N\c3cc4cn(C)nc4cc3Cl)n(Cc3cc(Cl)c(F)cc3Oc3ncc(C(F)(F)F)s3)c2=O)n1 [Compound 14, (E)-6-((6-chloro-2-methyl-2H-indazol-5-yl)imino)-1-(5-chloro-4-fluoro-2-((5-(trifluoromethyl)thiazol-2-yl)oxy)benzyl)-3-((1-methyl-1H-1,2,4-triazol-3-yl)methyl)-1,3,5-triazinane-2,4-dione]
- IC50 (M^pro of four alpha-CoVs): < 300 nM

Structure (SMILES): Cn1cc2cc(/N=c3\[nH]c(=O)n(Cc4ccc[nH]c4=O)c(=O)n3Cc3cc(Cl)c(F)cc3Oc3ccc(C#N)s3)c(Cl)cc2n1 [Compound 25, (E)-5-(4-chloro-2-((6-((6-chloro-2-methyl-2H-indazol-5-yl)imino)-2,4-dioxo-3-((2-oxo-1,2-dihydropyridin-3-yl)methyl)-1,3,5-triazinan-1-yl)methyl)-5-fluoro-phenoxy)thiophene-2-carbonitrile]
- IC50 (M^pro of four alpha-CoVs): < 600 nM
- IC50 ([1]; read-out: IC50 against ten high-risk CoVs): < 600 nM
- IC50 ([1]; read-out: IC50 values for six of the ten CoVs): < 100 nM
